# Results published in patent US20170354148A1, “SAFENED HERBICIDAL COMPOSITIONS CONTAINING HALAUXIFEN AND METHODS OF USE THEREOF IN BRASSICA SPECIES” (Dow AgroSciences LLC, priority 2016, published 2017).
# Several values for one entry are separate records, joined by “and”; a condition that tells them apart may be missing. Equal entries are not always repeated.
# Test system: Spring Argentine canola (Brassica napus, BRSNS)
# Test: Example 3 field trials (Canada), postemergence crop safety, visual phytotoxicity
structure (smiles),measurement,setting,value
"COC(=O)c1nc(-c2ccc(Cl)c(OC)c2F)cc(N)c1Cl [Halauxifen-methyl, methyl 4-amino-3-chloro-6-(4-chloro-2-fluoro-3-methoxyphenyl)-2-pyridineccarboxylate]",Mean % Visual Injury,"BRSNS, trial 8, 57DAA1, 0.62 g ae/ha",4.8%
same,Mean % Visual Injury,"BRSNS, trial 9, 27DAA1, 5 g ae/ha",6.8%
same,Mean % Visual Injury,"BRSNS, trial 9, 60DAA1, 10 g ae/ha",22.5% and 12.5%
same,Mean % Visual Injury,"Table 14, 7DAAA, halauxifen-methyl 5, quinclorac 101 g ae/ha, alone or mixed",0.8%
same,Mean % Visual Injury,"Table 14, 15DAAA, halauxifen-methyl 5, quinclorac 101 g ae/ha, alone or mixed",50.5%
same,Mean % Visual Injury,"Table 14, 27DAAA, halauxifen-methyl 5, quinclorac 101 g ae/ha, alone or mixed",48.5%
same,Mean % Visual Injury,"Table 14, 57DAAA, halauxifen-methyl 5, quinclorac 101 g ae/ha, alone or mixed",30.3%
same,Mean % Visual Injury,"Table 15, 7DAAA, halauxifen-methyl 5, clopyralid-olamine 150, quinclorac 101 g ae/ha, alone or mixed",0.8%
same,Mean % Visual Injury,"Table 15, 15DAAA, halauxifen-methyl 5, clopyralid-olamine 150, quinclorac 101 g ae/ha, alone or mixed",50.5%
same,Mean % Visual Injury,"Table 15, 27DAAA, halauxifen-methyl 5, clopyralid-olamine 150, quinclorac 101 g ae/ha, alone or mixed",48.5%
same,Mean % Visual Injury,"Table 15, 57DAAA, halauxifen-methyl 5, clopyralid-olamine 150, quinclorac 101 g ae/ha, alone or mixed",30.3%
same,Mean % Visual Injury,"Table 16, 7DAAA, halauxifen-methyl 5 g ae/ha, alone or plus isoxadifen-ethyl 5 g ae/ha",0.8%
same,Mean % Visual Injury,"Table 16, 15DAAA, halauxifen-methyl 5 g ae/ha, alone or plus isoxadifen-ethyl 5 g ae/ha",50.5%
same,Mean % Visual Injury,"Table 16, 27DAAA, halauxifen-methyl 5 g ae/ha, alone or plus isoxadifen-ethyl 5 g ae/ha",48.5%
same,Mean % Visual Injury,"Table 16, 57DAAA, halauxifen-methyl 5 g ae/ha, alone or plus isoxadifen-ethyl 5 g ae/ha",30.3%
same,Mean % Visual Injury,"Table 17, 7DAAA, halauxifen-methyl 5, clopyralid-olamine 150 g ae/ha alone, or both mixed with isoxadifen-ethyl 5 g ae/ha",0.8%
same,Mean % Visual Injury,"Table 17, 15DAAA, halauxifen-methyl 5, clopyralid-olamine 150 g ae/ha alone, or both mixed with isoxadifen-ethyl 5 g ae/ha",50.5%
same,Mean % Visual Injury,"Table 17, 27DAAA, halauxifen-methyl 5, clopyralid-olamine 150 g ae/ha alone, or both mixed with isoxadifen-ethyl 5 g ae/ha",48.5%
same,Mean % Visual Injury,"Table 17, 57DAAA, halauxifen-methyl 5, clopyralid-olamine 150 g ae/ha alone, or both mixed with isoxadifen-ethyl 5 g ae/ha",30.3%
same,Mean % Visual Injury,"Table 18, 8DAAA, halauxifen-methyl 5, clopyralid-olamine 150 g ae/ha, alone or mixed",10%
same,Mean % Visual Injury,"Table 18, 14DAAA, halauxifen-methyl 5, clopyralid-olamine 150 g ae/ha, alone or mixed",24%
same,Mean % Visual Injury,"Table 18, 40DAAA, halauxifen-methyl 5, clopyralid-olamine 150 g ae/ha, alone or mixed",7%
same,Mean % Visual Injury,"Table 18, 81DAAA, halauxifen-methyl 5, clopyralid-olamine 150 g ae/ha, alone or mixed",6%
same,Mean % Visual Injury,"Table 19, 8DAAA, halauxifen-methyl 5, clopyralid-olamine 150 g ae/ha alone, or both mixed with isoxadifen-ethyl 20 g ae/ha",10%
same,Mean % Visual Injury,"Table 19, 14DAAA, halauxifen-methyl 5, clopyralid-olamine 150 g ae/ha alone, or both mixed with isoxadifen-ethyl 20 g ae/ha",24%
same,Mean % Visual Injury,"Table 19, 40DAAA, halauxifen-methyl 5, clopyralid-olamine 150 g ae/ha alone, or both mixed with isoxadifen-ethyl 20 g ae/ha",7%
same,Mean % Visual Injury,"Table 19, 81DAAA, halauxifen-methyl 5, clopyralid-olamine 150 g ae/ha alone, or both mixed with isoxadifen-ethyl 20 g ae/ha",6%
same,Mean % Visual Injury,"Table 21, 8DAAA, halauxifen-methyl 5, quinclorac 101 g ae/ha, alone or mixed",10%
same,Mean % Visual Injury,"Table 21, 14DAAA, halauxifen-methyl 5, quinclorac 101 g ae/ha, alone or mixed",24%
same,Mean % Visual Injury,"Table 21, 40DAAA, halauxifen-methyl 5, quinclorac 101 g ae/ha, alone or mixed",7%
same,Mean % Visual Injury,"Table 21, 81DAAA, halauxifen-methyl 5, quinclorac 101 g ae/ha, alone or mixed",6%
same,Mean % Visual Injury,"Table 22, 8DAAA, halauxifen-methyl 5, clopyralid-olamine 150, quinclorac 101 g ae/ha, alone or mixed",10%
same,Mean % Visual Injury,"Table 22, 14DAAA, halauxifen-methyl 5, clopyralid-olamine 150, quinclorac 101 g ae/ha, alone or mixed",24%
same,Mean % Visual Injury,"Table 22, 40DAAA, halauxifen-methyl 5, clopyralid-olamine 150, quinclorac 101 g ae/ha, alone or mixed",7%
same,Mean % Visual Injury,"Table 22, 81DAAA, halauxifen-methyl 5, clopyralid-olamine 150, quinclorac 101 g ae/ha, alone or mixed",6%
same,Mean % Visual Injury,"Table 23, 7DAAA, halauxifen-methyl 5, clopyralid-olamine 150 g ae/ha, alone or mixed",2.5%
same,Mean % Visual Injury,"Table 23, 17DAAA, halauxifen-methyl 5, clopyralid-olamine 150 g ae/ha, alone or mixed",3.0%
same,Mean % Visual Injury,"Table 23, 49DAAA, halauxifen-methyl 5, clopyralid-olamine 150 g ae/ha, alone or mixed",2.5%
same,Mean % Visual Injury,"Table 24, 7DAAA, halauxifen-methyl 5, clopyralid-olamine 150 g ae/ha alone, or both mixed with isoxadifen-ethyl 20 g ae/ha",2.5%
same,Mean % Visual Injury,"Table 24, 17DAAA, halauxifen-methyl 5, clopyralid-olamine 150 g ae/ha alone, or both mixed with isoxadifen-ethyl 20 g ae/ha",3.0%
same,Mean % Visual Growth Inhibition,"Trial 1, 16DAA1, halauxifen-methyl 2.5, clopyralid-olamine 150 g ae/ha, alone or mixed",1.5%
same,Mean % Visual Growth Inhibition,"Trial 1, 30DAA1, halauxifen-methyl 2.5, clopyralid-olamine 150 g ae/ha, alone or mixed",3.3%
same,Mean % Visual Growth Inhibition,"Trial 1, 58DAA1, halauxifen-methyl 2.5, clopyralid-olamine 150 g ae/ha, alone or mixed",1.0%
same,Mean % Visual Growth Inhibition,"Trial 2, 32DAA1, halauxifen-methyl 0.62, clopyralid-olamine 150 g ae/ha, alone or mixed",1.0%
same,Mean % Visual Growth Inhibition,"Trial 2, 32DAA1, halauxifen-methyl 1.25, clopyralid-olamine 150 g ae/ha, alone or mixed",3.8%
same,Mean % Visual Growth Inhibition,"Trial 2, 32DAA1, halauxifen-methyl 2.5, clopyralid-olamine 150 g ae/ha, alone or mixed",8.0%
same,Mean % Visual Growth Inhibition,"Trial 2, 49DAA1, halauxifen-methyl 0.62, clopyralid-olamine 150 g ae/ha, alone or mixed",0.3%
same,Mean % Visual Growth Inhibition,"Trial 2, 49DAA1, halauxifen-methyl 1.25, clopyralid-olamine 150 g ae/ha, alone or mixed",2.3%
same,Mean % Visual Growth Inhibition,"Trial 2, 49DAA1, halauxifen-methyl 2.5, clopyralid-olamine 150 g ae/ha, alone or mixed",2.5%
same,Mean % Visual Growth Inhibition,"Trial 3, 8DAA1, halauxifen-methyl 5, clopyralid-olamine 150 g ae/ha, alone or mixed, line r23",2.5%
same,Mean % Visual Growth Inhibition,"Trial 3, 8DAA1, halauxifen-methyl 5, clopyralid-olamine 150 g ae/ha, alone or mixed, line r25",1.5%
same,Mean % Visual Growth Inhibition,"Trial 3, 8DAA1, halauxifen-methyl 10, clopyralid-olamine 150 g ae/ha, alone or mixed, line r22",3.3%
same,Mean % Visual Growth Inhibition,"Trial 3, 8DAA1, halauxifen-methyl 10, clopyralid-olamine 150 g ae/ha, alone or mixed, line r24",2.3%
same,Mean % Visual Growth Inhibition,"Trial 3, 17DAA1, halauxifen-methyl 5, clopyralid-olamine 150 g ae/ha, alone or mixed, line r27",1.3%
same,Mean % Visual Growth Inhibition,"Trial 3, 17DAA1, halauxifen-methyl 5, clopyralid-olamine 150 g ae/ha, alone or mixed, line r29",1.5%
same,Mean % Visual Growth Inhibition,"Trial 3, 17DAA1, halauxifen-methyl 10, clopyralid-olamine 150 g ae/ha, alone or mixed, line r26",29.5%
same,Mean % Visual Growth Inhibition,"Trial 3, 17DAA1, halauxifen-methyl 10, clopyralid-olamine 150 g ae/ha, alone or mixed, line r28",2.8%
same,Mean % Visual Growth Inhibition,"Trial 3, 35DAA1, halauxifen-methyl 10, clopyralid-olamine 150 g ae/ha, alone or mixed",0.8%
same,Mean % Visual Growth Inhibition,"Trial 3, 48DAA1, halauxifen-methyl 5, clopyralid-olamine 150 g ae/ha, alone or mixed, line r31",1.8%
same,Mean % Visual Growth Inhibition,"Trial 3, 48DAA1, halauxifen-methyl 5, clopyralid-olamine 150 g ae/ha, alone or mixed, line r32",1.5%
same,Mean % Visual Growth Inhibition,"Trial 4, 13DAA1, halauxifen-methyl 10, clopyralid-olamine 150 g ae/ha, alone or mixed, line r33",57.5%
same,Mean % Visual Growth Inhibition,"Trial 4, 13DAA1, halauxifen-methyl 10, clopyralid-olamine 150 g ae/ha, alone or mixed, line r34",31.3%
same,Mean % Visual Growth Inhibition,"Trial 5, 7DAA1, halauxifen-methyl 0.62, clopyralid-olamine 150 g ae/ha, alone or mixed",1.0%
same,Mean % Visual Growth Inhibition,"Trial 5, 7DAA1, halauxifen-methyl 1.25, clopyralid-olamine 150 g ae/ha, alone or mixed",1.5%
same,Mean % Visual Growth Inhibition,"Trial 5, 7DAA1, halauxifen-methyl 2.5, clopyralid-olamine 150 g ae/ha, alone or mixed",1.5%
same,Mean % Visual Growth Inhibition,"Trial 5, 7DAA1, halauxifen-methyl 5, clopyralid-olamine 150 g ae/ha, alone or mixed",2.0%
same,Mean % Visual Growth Inhibition,"Trial 6, 33DAA1, halauxifen-methyl 5, clopyralid-olamine 150 g ae/ha, alone or mixed",4.5%
same,Mean % Visual Growth Inhibition,"Trial 7, 8DAA1, halauxifen-methyl 5, clopyralid-olamine 150 g ae/ha, alone or mixed",8.0%
same,Mean % Visual Growth Inhibition,"Trial 7, 15DAA1, halauxifen-methyl 0.62, clopyralid-olamine 150 g ae/ha, alone or mixed",2.5%
same,Mean % Visual Growth Inhibition,"Trial 7, 15DAA1, halauxifen-methyl 5, clopyralid-olamine 150 g ae/ha, alone or mixed",15.5%
same,Mean % Visual Growth Inhibition,"Trial 8, 7DAA1, halauxifen-methyl 5, clopyralid-olamine 150 g ae/ha, alone or mixed",7.5%
same,Mean % Visual Growth Inhibition,"Trial 8, 7DAA1, halauxifen-methyl 10, clopyralid-olamine 150 g ae/ha, alone or mixed, line r44",9.0%
same,Mean % Visual Growth Inhibition,"Trial 8, 7DAA1, halauxifen-methyl 10, clopyralid-olamine 150 g ae/ha, alone or mixed, line r45",3.5%
same,Mean % Visual Growth Inhibition,"Trial 8, 7DAA1, halauxifen-methyl 10, clopyralid-olamine 150 g ae/ha, alone or mixed, line r46",2.0%
same,Mean % Visual Growth Inhibition,"Trial 8, 7DAA1, halauxifen-methyl 10, clopyralid-olamine 150 g ae/ha, alone or mixed, line r47",1.5%
same,Mean % Visual Growth Inhibition,"Trial 8, 15DAA1, halauxifen-methyl 5, clopyralid-olamine 150 g ae/ha, alone or mixed",20.0%
same,Mean % Visual Growth Inhibition,"Trial 8, 15DAA1, halauxifen-methyl 10, clopyralid-olamine 150 g ae/ha, alone or mixed, line r49",6.0%
same,Mean % Visual Growth Inhibition,"Trial 8, 15DAA1, halauxifen-methyl 10, clopyralid-olamine 150 g ae/ha, alone or mixed, line r50",2.0%
same,Mean % Visual Growth Inhibition,"Trial 9, 23DAA1, halauxifen-methyl 2.5, clopyralid-olamine 150 g ae/ha, alone or mixed",35.0%
same,Mean % Visual Growth Inhibition,"Trial 9, 23DAA1, halauxifen-methyl 5, clopyralid-olamine 150 g ae/ha, alone or mixed",50.0%
same,Mean % Visual Growth Inhibition,"Trial 9, 33DAA1, halauxifen-methyl 5, clopyralid-olamine 150 g ae/ha, alone or mixed",25.0%
same,Mean % Visual Growth Inhibition,"Trial 9, 59DAA1, halauxifen-methyl 5, clopyralid-olamine 150 g ae/ha, alone or mixed",6.3%
same,Mean % Visual Growth Inhibition,"Trial 10, 17DAA1, halauxifen-methyl 5, clopyralid-olamine 100 g ae/ha, alone or mixed",46.7%
same,Mean % Visual Growth Inhibition,"Trial 10, 17DAA1, halauxifen-methyl 5, clopyralid-olamine 150 g ae/ha, alone or mixed",46.7%
same,Mean % Visual Growth Inhibition,"Trial 10, 17DAA1, halauxifen-methyl 5, clopyralid-olamine 200 g ae/ha, alone or mixed",46.7%
same,Mean % Visual Growth Inhibition,"Trial 10, 27DAA1, halauxifen-methyl 5, clopyralid-olamine 150 g ae/ha, alone or mixed",16.7%
same,Mean % Visual Growth Inhibition,"Trial 10, 27DAA1, halauxifen-methyl 5, clopyralid-olamine 200 g ae/ha, alone or mixed",16.7%
same,Mean % Visual Growth Inhibition,"Trial 11, 7DAA1, halauxifen-methyl 5, clopyralid-olamine 150 g ae/ha, alone or mixed",1.3%
same,Mean % Visual Growth Inhibition,"Trial 11, 15DAA1, halauxifen-methyl 0.62, clopyralid-olamine 150 g ae/ha, alone or mixed",2.0%
same,Mean % Visual Growth Inhibition,"Trial 11, 15DAA1, halauxifen-methyl 1.25, clopyralid-olamine 150 g ae/ha, alone or mixed",6.5%
same,Mean % Visual Growth Inhibition,"Trial 12, 15DAA1, halauxifen-methyl 10, clopyralid-olamine 150 g ae/ha, alone or mixed",25.0%
same,Mean % Visual Growth Inhibition,"Trial 12, 27DAA1, halauxifen-methyl 5, clopyralid-olamine 150 g ae/ha, alone or mixed",5.8%
